Experimental data: PMC12035560, “Structures of Mycobacterium tuberculosis isoprenyl diphosphate synthase Rv2173 in substrate-bound forms” (Acta Crystallographica Section F: Structural Biology …, 2025)

Target: T1, Rv2173 (Mycobacterium tuberculosis, UniProt O53507)
T1 construct: gene idsA2
T1 sequence (O53507 whole entry): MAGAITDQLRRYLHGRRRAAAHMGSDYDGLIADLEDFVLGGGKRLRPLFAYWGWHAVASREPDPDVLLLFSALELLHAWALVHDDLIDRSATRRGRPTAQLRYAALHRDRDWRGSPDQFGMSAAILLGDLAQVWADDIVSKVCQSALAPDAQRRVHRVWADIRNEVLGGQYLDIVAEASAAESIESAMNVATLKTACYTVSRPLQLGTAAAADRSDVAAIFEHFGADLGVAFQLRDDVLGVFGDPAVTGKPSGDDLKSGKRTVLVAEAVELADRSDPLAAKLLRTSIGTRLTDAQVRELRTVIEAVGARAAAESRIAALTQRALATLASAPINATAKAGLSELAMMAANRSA

SMILES: CC(C)=CCOP(=O)(O)OP(=O)(O)O [DMAPP]
- X-ray crystal structure, 2.20 A, co-crystallization: Two metal ions bind to the FARM, coordinating to the DMAPP bound in the allylic/DMAPP site
